Results from BindingDB's records for patent US11185100 (MARS, INCORPORATED, 2021).

Columns and labels:
[1] = target: T1, G-protein coupled receptors family 3 profile domain-containing protein (Felis catus, UniProt A0ABI7Z2I4); experiment: Activation of T1R1/T1R3 Receptor by Nucleotide Derivatives
Excerpt: HEK293 cells that stably express T1R3 and inducibly express T1R1 were exposed to nucleotide derivatives alone to activate the umami receptor. Activation of the T1R1/T1R3 receptor was detected by a change in intracellular calcium levels using a calcium sensitive fluorescent dye. Cells that express T1R3 but not T1R1 were used as a control. A FLIPR Tetra or a FlexStation 3 was used for data capture.

[2] = target: T1, G-protein coupled receptors family 3 profile domain-containing protein; experiment: Activation of T1R1/T1R3 Receptor by Nucleotide Derivatives (alanine)
Experimental: The concentration of alanine is 20 mM.
Target sequence in this assay (A0ABI7Z2I4 1-770): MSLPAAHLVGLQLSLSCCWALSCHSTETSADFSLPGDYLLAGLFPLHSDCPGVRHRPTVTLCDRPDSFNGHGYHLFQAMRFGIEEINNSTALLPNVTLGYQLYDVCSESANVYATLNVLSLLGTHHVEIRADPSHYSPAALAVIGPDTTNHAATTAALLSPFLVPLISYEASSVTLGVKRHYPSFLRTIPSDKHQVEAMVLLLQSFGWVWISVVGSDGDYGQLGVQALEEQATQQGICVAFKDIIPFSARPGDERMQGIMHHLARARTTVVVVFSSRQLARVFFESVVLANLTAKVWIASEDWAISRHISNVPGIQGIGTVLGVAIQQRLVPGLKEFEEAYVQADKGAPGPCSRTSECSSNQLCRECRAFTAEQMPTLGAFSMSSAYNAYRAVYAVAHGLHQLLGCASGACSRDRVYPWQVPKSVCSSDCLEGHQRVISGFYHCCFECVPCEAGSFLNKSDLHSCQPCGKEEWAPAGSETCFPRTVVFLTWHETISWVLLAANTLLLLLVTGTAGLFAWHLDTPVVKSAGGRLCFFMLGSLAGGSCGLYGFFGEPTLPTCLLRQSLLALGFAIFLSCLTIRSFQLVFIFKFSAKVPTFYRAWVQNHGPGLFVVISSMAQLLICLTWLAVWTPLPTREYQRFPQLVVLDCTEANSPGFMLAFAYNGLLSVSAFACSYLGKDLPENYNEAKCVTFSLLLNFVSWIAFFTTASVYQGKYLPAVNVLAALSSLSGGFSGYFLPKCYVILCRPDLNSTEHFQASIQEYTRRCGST

## Nc1ncnc2c1ncn2[C@@H]1O[C@H](COP(=O)(O)O)[C@@H](OP(=O)(O)O)[C@H]1O [US11185100, TABLE 7.1]
[1]
  EC50: > 30 µM

## CC1(O)[C@](C)(n2cnc3c(N)ncnc32)O[C@](C)(COP(O)(O)=S)[C@]1(C)O (stereo partly drawn) [US11185100, TABLE 6.6]
[2]
  EC50: 60 µM

## CC1(O)[C@@](C)(COP(O)(O)=S)O[C@@](C)(n2cnc3c(N)ncnc32)[C@@]1(C)O (stereo partly drawn) [US11185100, TABLE 7.9]
[2]
  EC50: 60 µM
